Source: patent US9267945B2, “Diagnosis of multiple sclerosis” (Yeda Research and Development Co. Ltd., priority 2008, dated 2016)

How the values were obtained:
[1] = system: IgG reactivity to PLP261-277; assay: Inhibition of RRMS serum IgG reactivity on antigen microarray by pre-incubation with free peptide; type: binding, human; settings: RRMS sera 1:10 dilution, excess unbound peptide, FIG. 1C
Experimental: RRMS or healthy controls (HC) serum samples were hybridized on antigen microarrays at different concentrations and the mean IgG (FIG. 1A) and IgM (FIG. 1B) reactivity to the CNS, HSP or lipid antigens spotted on the microarrays were measured. Results are presented as mean±SEM of the IgG or IgM reactivity for CNS, HSP or lipid antigens at each dilution. *P<0.05, **P<0.01 and ***P<0.001 (two-way ANOVA) when compared to HC samples tested at the same dilution.
The chips were washed with PBS, blocked for 1 h at 37° C. with 1% BSA, and incubated for 2 hours at 37° C. with a 1:10 dilution of the test serum in blocking buffer under a coverslip in a humid environment. The arrays were then washed and incubated for 45 min at 37° C. with a 1:500 dilution mixture of goat anti-human IgG Cy3-conjugated antibody and a goat anti-human IgM conjugated to Cy5, (both purchased from Jackson ImmunoResearch, West Grove, Pa. The arrays were scanned with a ScanArray 4000× scanner (GSI Luminomics, Billerica, Mass., USA) and the IgM and IgG results were recorded separately. The results were recorded as TIFF files.

[2] = system: EAE in C57BL/6 mice; assay: EAE induced with MOG35-55; type: in vivo
Experimental: EAE was induced in C57BL/6 mice with MOG35-55, and 15-ketocholestene, 15-ketocholestane and 15α-hydroxycholestene were administered at days 0, 4, 7 and 10 after EAE induction (10 μg/mice). AIQ was administered intraperitoneally (60 μg/mice) on daily basis. The course of EAE in these mice is shown as the mean EAE score+s.e.m. (MOG35-55 n=22, MOG35-55+oxChol n=24, MOG35-55+oxChol+AIQ n=18).
Spinal cords were taken on day 19 and stained with hematoxylin and eosin, luxol fast blue or silver stain to quantify the cellular infiltrate, demyelination and axonal loss, respectively. Each column represents the mean±SEM resulting from the analysis of at least 8 sections. Administration of oxChol enhanced EAE as measured clinically (FIG. 4A, P<0.0001, two-way ANOVA), and augmented inflammatory infiltrates (FIG. 4B; P<0.05, one-way ANOVA), demyelination (FIG. 4C; P<0.01, one-way ANOVA) and axonal loss (FIG. 4D; P<0.001, one-way ANOVA); these effects were inhibited by treatment with AIQ (P<0.001, one-way ANOVA).

[3] = system: T cell responses to MOG35-55; assay: T cell responses to MOG35-55 in EAE mice; type: cell-based; settings: EAE mice given oxChol and AIQ
Experimental: Further investigations were performed to determine whether the effect of oxChol on EAE was mediated by PARP.

PLP261-277: proteolipid protein peptide 261-277, used unbound as competitor (ATYNFAVLKLMGRGTKF)
reactivity to PLP261-277 on the antigen array after pre-incubation of the serum with peptide [1]: inhibited

Nc1cccc2c(=O)[nH]ccc12 [AIQ, 5-Aminoisoquinolinone]
inflammatory infiltrates in spinal cord ([2]; day 19, hematoxylin and eosin, FIG. 4B): inhibited | demyelination in spinal cord ([2]; day 19, luxol fast blue, FIG. 4C): inhibited | axonal loss in spinal cord ([2]; day 19, silver stain, FIG. 4D): inhibited | EAE measured clinically (mean EAE score) ([2]; oxChol 10 μg/mice days 0, 4, 7, 10, AIQ 60 μg/mice i.p. daily, FIG. 4A, P<0.0001): abrogated the worsening of EAE | T cell responses to MOG35-55 as measured by cytokines (IFN-γ and IL-17) or proliferation [3]: did not affect
